{"source": "patent US5866548A", "about": "“Caged membrane-permeant inositol phosphates” (priority 1996, dated 1999)", "key": {"[1]": {"tested_on": "cAMP-dependent protein kinase (PKA)", "assay_type": "cell-based"}, "[2]": {"molecular_target": "cAMP-dependent kinase type I (FICRhR) (Bos taurus, UniProt P00514)", "sequence (P00514 whole entry)": "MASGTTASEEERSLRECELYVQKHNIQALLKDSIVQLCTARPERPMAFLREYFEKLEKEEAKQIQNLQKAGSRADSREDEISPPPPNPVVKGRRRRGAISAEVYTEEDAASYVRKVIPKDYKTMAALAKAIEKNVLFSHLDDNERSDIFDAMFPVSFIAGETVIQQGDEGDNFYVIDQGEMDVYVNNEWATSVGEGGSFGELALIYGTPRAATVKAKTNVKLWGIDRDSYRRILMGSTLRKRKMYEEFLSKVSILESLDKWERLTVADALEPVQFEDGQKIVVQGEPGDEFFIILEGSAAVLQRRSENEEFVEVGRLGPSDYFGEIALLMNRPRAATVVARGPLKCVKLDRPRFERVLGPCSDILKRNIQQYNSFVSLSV", "assay_type": "biochemical", "text": "When PKA is doubly labeled with fluorescein on its catalytic subunits and rhodamine on its regulatory subunits to produce FICRhR, fluorescence energy transfer from the fluorescein to rhodamine occurs in the holoenzyme complex but is disrupted upon activation and dissociation of the subunits. The change in the ratio of fluorescein to rhodamine emissions parallels the increase in kinase activity and can be nondestructively imaged in single cells. REF-52 fibroblasts were microinjected with FICRhR and emission ratio images recorded at room temperature as previously described (27)."}, "intestinal cell line T84": {"tested_on": "intestinal cell line T84", "test": "cells", "assay_type": "cell-based", "conditions": "for EC50: 0.2 h, T84, ISC 12 min after addition, read-out: EC50 (chloride secretion)", "text": "A convenient test system is the intestinal cell line T84, in which chloride secretion can be continuously monitored by mounting confluent monolayers of cells in Ussing chambers (42)."}, "angelfish melanophores": {"tested_on": "angelfish melanophores", "test": "Pigment dispersion in fish dermal melanophores", "assay_type": "cell-based, angelfish (Pterophyllum scalare)", "conditions": "for reversibility of dispersion: removal of compound and epinephrine", "description": "Melanophores permit a visual single-cell assay for the ability of cAMP analogs to enter cells and mimic cAMP actions. The melanophores were isolated on angelfish scales and the epidermis was stripped off. […] Dispersion was just detectable at 1 μM and half-maximal near 10 μM (FIG. 3A). […] The preceding examples are summarized in (64)."}, "Membrane permeability": {"test": "Membrane permeability", "assay_type": "in vitro ADME"}, "1321N1 astrocytoma cells [3]": {"tested_on": "1321N1 astrocytoma cells", "test": "[Ca2+]i response before and after UV uncaging, fluo-3", "assay_type": "cell-based", "description": "(b) Same experiment as (a) except done in Ca^2+ free medium (DPBS, O Ca^2+, 0.5 mM EGTA). UV exposure of the cells treated with IP3 -CPM still gave the same response, showing that the [Ca^2+ ]i increase resulted from the release of Ca^2+ from internal stores. […] The cells were loaded with fluo-3/AM. During the experiment the cells were bathed in HBS buffered with 20 mM Hepes at pH 7.4 and supplemented with 2 g/L glucose.\nThe [Ca^2+ ]i was monitored using the calcium indicator fluo-3 rather than fura-2 to keep the excitation wavelength of the indicator (490 nm) far from the uncaging wavelength (360 nm) of DMNB group. […] Compared to the photolyzing set-up (direct illumination by a hand mercury lamp) used for the IP3 -binding assay, the optical throughput from the source lamp to the specimen is much higher in a microscope, so 10 seconds (as opposed to 2 hours in IP3 binding assay) of photolysis was sufficient to produce enough IP3 to elicit [Ca^2+ ]i increase. The same amount of UV alone had no effect at all on [Ca^2+ ]i in cells not treated with IP3 -CPM. After recovering from uncaging of IP3 -CPM, the cells responded to subsequent carbachol and thapsigargin stimulation normally.\nThis confirmed that the [Ca^2+ ]i increase due to uncaging of IP3 -CPM resulted from internal Ca^2+ release, which was consistent with the normal mechanism of IP3 action."}, "[4]": {"tested_on": "P388D1 macrophage-like cells", "test": "[Ca2+]i response before and after UV uncaging, fluo-3", "assay_type": "cell-based", "conditions": "for [Ca2+]i after UV (360 nm, 10 s): 20 μM", "description": "The cells were loaded with fluo-3/AM. During the experiment the cells were bathed in HBS buffered with 20 mM Hepes at pH 7.4 and supplemented with 2 g/L glucose.\nAnother example was carried out in P388D1 macrophage-like cells.\nStudies by Asmis et al. (92) have shown that, in P388D1 macrophage-like cells, PAF stimulated PGE2 production is mediated through two separate signals: IP3 induced [Ca^2+ ]i increase and another unidentified signal. IP3 -CPM might serve as a new tool for detailed study of PGE2 formation and AA release in relation to IP3 and [Ca^2+ ]i in these cells. One of the major advantages of using permeant IP3 derivatives is that experiments can be easily carried out in a population of cells, which is required for the measurement of AA release and PGE2 formation."}, "[5]": {"tested_on": "human embryonic kidney cells (HEK cells)", "test": "[Ca2+]i response on flash photolysis of loaded cells", "assay_type": "cell-based", "description": "In human embryonic kidney cells (HEK cells), the extracellular IP3 -CPM was washed away after the cells had been loaded with 50 μM of IP3 -CPM for 20 minutes. […] Cells in the same dish which had not been exposed to UV light were kept in the dark for over 6 hours. […] However, pretreatment of IP3 -CPM with acetic acid will unmask the 3-hydroxyl and enable the intracellular phosphorylation of delivered IP3."}, "Chemical stability": {"test": "Chemical stability", "assay_type": "physicochemical"}, "1321N1 astrocytoma cells [6]": {"tested_on": "1321N1 astrocytoma cells", "test": "[Ca2+]i response before and after UV uncaging, fluo-3", "assay_type": "cell-based", "conditions": "with extracellular Ca2+"}, "[7]": {"conditions": "20 μM extracellular, about/over 5 min"}}, "note": "Entries after “also recorded” stand apart in the source; their conditions may differ."}
{"smiles": "CCCC(=O)Nc1ncnc2c1ncn2[C@@H]1O[C@@H]2COP(=O)(O)O[C@H]2[C@H]1OC(=O)CCC", "note": "[Bt2 cAMP, N^6,O^2' -dibutyryl cAMP, reference compound]", "values": [{"measurement": "delay and overall time course of PKA activation (in words)", "setting": "[1]; REF-52, extracellular", "result": "Much the same delay and overall time course"}, {"measurement": "potency relative to cAMP", "setting": "[2]; in vitro binding to FICRhR", "result": "roughly 1/100"}, {"measurement": "EC50", "setting": "intestinal cell line T84", "result": 400, "unit": "µM"}, {"measurement": "pigment dispersion", "setting": "angelfish melanophores; 1 mM", "result": "unable to cause any detectable dispersion"}, {"measurement": "membrane permeability (in words)", "setting": "Membrane permeability", "result": "poor permeability"}]}
{"smiles": "CCCC(=O)Nc1ncnc2c1ncn2[C@@H]1O[C@@H]2COP(=O)(OCOC(C)=O)O[C@H]2[C@H]1OC(=O)CCC", "note": "(some centres unmarked) [Bt2 cAMP/AM, N^6,O^2' -Dibutyryl Adenosine 3',5'-cyclic Monophosphate Acetoxymethyl Ester]", "values": [{"measurement": "onset of separation of regulatory and catalytic subunit of FICRhR after addition", "setting": "[1]; REF-52, extracellular", "result": "roughly 2 min"}, {"measurement": "plateau, % of the maximal change in fluorescence ratio", "setting": "[1]; REF-52, extracellular 1 μM", "result": "over 50%"}, {"measurement": "change in fluorescence ratio (PKA activation)", "setting": "[1]; REF-52, extracellular 10 μM, within 15 min", "result": "maximal change in fluorescence ratio within 15 min"}, {"measurement": "separation of the subunits of FICRhR (in words)", "setting": "[2]; in vitro, 10 μM", "result": "no separation of the subunits"}, {"measurement": "EC50", "setting": "intestinal cell line T84", "result": 2, "unit": "µM"}, {"measurement": "increase in potency by acetoxymethyl group vs Bt2 cAMP", "setting": "intestinal cell line T84; T84", "result": 200, "unit": "fold"}, {"measurement": "kinetics of activation of chloride secretion (in words)", "setting": "intestinal cell line T84; T84, Bt2 cAMP/AM vs Bt2 cAMP", "result": "essentially indistinguishable kinetics of activation"}, {"measurement": "increase in potency by AM ester group vs Bt2 cAMP", "setting": "angelfish melanophores", "result": "more than 1000"}, {"measurement": "pigment dispersion", "setting": "angelfish melanophores; 100 μM", "result": "essentially complete dispersal"}, {"measurement": "reversibility of dispersion", "setting": "angelfish melanophores; 100 μM", "result": "easily reversed"}, {"measurement": "reversibility of dispersion", "setting": "angelfish melanophores; 1 mM", "result": "could not be readily reversed"}, {"measurement": "onset of dispersion", "setting": "angelfish melanophores; 1 mM, vs 100 μM", "result": "slightly faster onset of action"}]}
{"smiles": "CCC(=O)OCOP(=O)(OCOC(=O)CC)O[C@@H]1[C@@H](OCc2cc(OC)c(OC)cc2[N+](=O)[O-])[C@H](OP(=O)(OCOC(=O)CC)OCOC(=O)CC)[C@@H]2OC(OC)O[C@@H]2[C@H]1OP(=O)(OCOC(=O)CC)OCOC(=O)CC", "note": "(stereo partly drawn) [IP3 -CPM, D-2,3-O-methoxymethylene-6-O-(4,5-dimethoxy-2-nitrobenzyl)-myo-Inositol 1,4,5-trisphosphate hexakis(propionyloxymethyl)ester]", "values": [{"measurement": "[Ca2+]i before UV", "setting": "1321N1 astrocytoma cells [3]; [7]", "result": "no effect on [Ca^2+ ]i"}, {"measurement": "[Ca2+]i after UV (360 nm, 10 s)", "setting": "1321N1 astrocytoma cells [3]; 20 μM, Ca2+ free medium (0.5 mM EGTA), listed as IP3 -CPM (V-1)", "result": "same response"}, {"measurement": "extracellular concentration eliciting maximal Ca2+ release upon uncaging", "setting": "1321N1 astrocytoma cells [3]; 1321N1 astrocytoma cells", "result": "10^-6 to 10^-5 M"}, {"measurement": "[Ca2+]i time course after uncaging", "setting": "1321N1 astrocytoma cells [3]; Ca2+ free medium", "result": "soon went back to the resting level"}, {"measurement": "[Ca2+]i time course after uncaging", "setting": "[4]", "result": "went back to the basal level in a short time"}, {"measurement": "[Ca2+]i after UV (360 nm, 10 s)", "setting": "[4]", "result": "released a fair amount of Ca^2+ from internal stores"}, {"measurement": "[Ca2+]i before UV", "setting": "[4]; [7]", "result": "no effect on [Ca^2+ ]i"}, {"measurement": "[Ca2+]i after UV (360 nm, 10 s)", "setting": "[4]; listed as IP3 -CPM (V-1)", "result": "big [Ca^2+ ]i increase"}, {"measurement": "[Ca2+]i on photolysis (1 ms flash)", "setting": "[5]; loaded 50 μM, 20 min, washed", "result": "transient increase in [Ca^2+ ]i"}, {"measurement": "persistence of [Ca2+]i response to repeated flashes", "setting": "[5]; loaded 50 μM, 20 min, washed", "result": "persisted for up to a dozen repetitions"}, {"measurement": "[Ca2+]i on photolysis after dark storage", "setting": "[5]; over 6 hours in the dark after loading", "result": "[Ca^2+ ]i increases similar to those obtained immediately after being loaded; also recorded: full-scale [Ca^2+ ]i increases"}, {"measurement": "chemical stability vs commercially available caged IP3", "setting": "Chemical stability", "result": "chemically more stable"}, {"measurement": "membrane permeability (in words)", "setting": "Membrane permeability", "result": "crossed the cell membrane"}, {"measurement": "[Ca2+]i after UV (360 nm, 10 s)", "setting": "1321N1 astrocytoma cells [6]; 20 μM", "result": "almost saturating [Ca^2+ ]i increase"}, {"measurement": "[Ca2+]i time course after uncaging", "setting": "1321N1 astrocytoma cells [6]", "result": "remained elevated above the resting level"}]}
